Measured values taken from US20040102361A1, “Pharmaceutical composition for the treatment of pulmonary arterial hypertension” (priority 2002, published 2004).
Where a name gives a salt, the structure may show the parent alone.

How the values were obtained:
[1] = test system: patients with severe pulmonary arterial hypertension; test: Clinical trial AC-052-355: hemodynamic efficacy, change from baseline to week 16; type: in vivo; conditions: change from baseline at week 16
Experimental: (§1) This was a double-blind, randomized, placebo-controlled study to assess the effects of bosentan on hemodynamics, safety and tolerability in patients with severe pulmonary arterial hypertension when combined with the initiation of epoprostenol therapy.
(§2) Study design: The duration of the study was 16 weeks, 2:1 bosentan:placebo randomization. All patients received the starting epoprostenol dose of 2 ng/kg/min for 2 days, then they were randomized to receive either bosentan or placebo. Every 2 weeks thereafter, epoprostenol was increased by 2 ng/kg/min up to the target dose of 14±2 ng/kg/min by week 16. All patients received epoprostenol together with either bosentan or placebo for 16 weeks. Hemodynamic assessments were performed at baseline (prior to start of therapy) and again after 16 weeks of therapy. Safety monitoring was performed throughout the study duration.
Primary endpoint: Percent change from baseline in total pulmonary resistance (TPR) to week 16. The sample size was estimated for an expected mean difference in TPR of 28%.
(§3) Secondary endpoints: Changes from baseline to week 16 in CI (Cardiac Index), PVR (Pulmonary Vascular Resistance), […] (mean pulmonary arterial pressure), and mRAP (mean right atrial pressure); changes from baseline to week 16 in walk distance (6-min walk test), dyspnea fatigue rating, WHO functional class; and safety and tolerability.
(§4) Thirty-three patients entered the study: 11 patients received epoprostenol alone, while 22 patients received bosentan with epoprostenol.
In Table 1 the results are expressed as changes from baseline at week 16. Mean±SD (standard deviation) and median change (in brackets).

[2] = test system: patients with severe pulmonary arterial hypertension; test: Clinical trial AC-052-355: vital signs (systolic blood pressure, heart rate), change from baseline to week 16; conditions: human, in vivo
Experimental: as §1, §2, §3, §4

[3] = test system: patients with severe pulmonary arterial hypertension; test: Clinical trial AC-052-355: treatment emergent adverse events; type: in vivo; conditions: 16 weeks
Experimental: as §1, §2, §3, §4

For `CCCCC[C@H](O)/C=C/[C@@H]1[C@H]2C/C(=C/CCCC(=O)O)O[C@H]2C[C@H]1O` [Epoprostenol alone, (5Z, 9α, 111α, 13E, 15)-6,9-epoxy-11,15-dihydroxyprosta-5,13-dien-1-oic acid, sodium salt], the “CI, % mean change” value ([1]; cardiac index, mean (SD in the next cell)) was 37.9%, the “CI, absolute change” value ([1]; mean (SD in the next cell)) was 0.57 L/min/m^2 and the “TPR, absolute change” value ([1]; mean (SD in the next cell)) was −386 dyn*sec/cm^5. The “mPAP, absolute change” value ([1]; mean (SD in the next cell)) was −1.6 mmHg, the “CI, % median change” value ([1]; median (in brackets)) was “(30.0%)” and the “TPR, % median change” value ([1]; median (in brackets)) was “(−14.3%)”. For the same molecule, the “mRAP, absolute change” value ([1]; mean right atrial pressure, mean (SD in the next cell)) was 0.3 mmHg, the “TPR, % mean change” value ([1]; total pulmonary resistance, mean (SD in the next cell)) was −22.6% and the “Heart Rate (bpm), median change from baseline to week 16” value [2] was 7.0 bpm. The “Systolic blood pressure (mmHg), change from baseline to week 16” value [2] was −9.8 ± 10.9%, the “FLUSHING, %” value ([3]; human, in vivo) was 45.5% and the “FLUSHING, No.” value ([3]; human, in vivo) was 5. The “HYPOTENSION, %” value ([3]; human, in vivo) was 18.2%, the “HYPOTENSION, No.” value ([3]; human, in vivo) was 2 and the “PAIN IN JAW, %” value ([3]; human, in vivo) was 90.9%. The “PAIN IN JAW, No.” value ([3]; human, in vivo) was 10, the “HEADACHE, No.” value ([3]; number of patients with the adverse event, 11 patients epoprostenol alone, 22 bosentan with epoprostenol) was 4 and the “HEADACHE, %” value ([3]; percent of patients with the adverse event) was 36.4%.
